Data: US8729089B2 (Gilead Sciences, Inc., priority 2006, dated 2014)

How the values were obtained:
[1] = test system: HCV replicon in human hepatoma Huh-7 cell line; assay: Anti-HCV replicon assay (EC50, luciferase); format: cell-based; settings: Hepatitis C virus, Huh-7, 72 h
How it was run: (§1)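 Cytotoxicity (CC50) measured by CellTiter-Glo and antiviral activity (EC50) by luciferase signal from lysed cells, both by luminescence. Replicon-bearing Huh-7 cells, 6000 per well, incubated 3 days at 37 °C with threefold-diluted compound (0.5% DMSO for DMSO-dissolved compounds).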

[2] = CC50 assay (CellTiter-Glo) in Huh-7 HCV replicon cells; format: cell-based, human; settings: human, 3 days incubation, CellTiter-Glo readout
How it was run: as §1

## NC(=O)c1ccc(-c2ccc3nc(NCc4ccc(F)cc4)nc(NCC(F)(F)F)c3n2)cc1 [Example 272, 4-[2-(4-Fluoro-benzylamino)-4-(2,2,2-trifluoro-ethylamino)-pyrido[3,2-d]pyrimidin-6-yl]-benzamide]
[1]
  EC50: < 0.1 µM
[2]
  CC50 at 3 days: < 5 µM

## CN(CCS(C)(=O)=O)c1nc(NCc2ccc(F)cc2)nc2ccc(-c3ccc(C(N)=O)cc3)nc12 [Example 273, 4-{2-(4-Fluoro-benzylamino)-4-[(2-methanesulfonyl-ethyl)-methyl-amino]-pyrido[3,2-d]pyrimidin-6-yl}-benzamide]
[1]
  EC50: < 0.1 µM
[2]
  CC50 at 3 days: 5 to 25 µM

## CS(=O)(=O)CCNc1nc(NCc2ccc(F)cc2)nc2ccc(-c3ccc(C(N)=O)cc3)nc12 [Example 274, 4-[2-(4-Fluoro-benzylamino)-4-(2-methanesulfonyl-ethylamino)-pyrido[3,2-d]pyrimidin-6-yl]-benzamide]
[1]
  EC50: < 0.1 µM
[2]
  CC50 at 3 days: < 5 µM

## O=C1C(O)CCN1c1ccc(-c2ccc3nc(NCc4ccc(F)cc4)nc(NCC(F)(F)F)c3n2)cc1 (stereo not shown) [Example 275, 1-{4-[2-(4-Fluoro-benzylamino)-4-(2,2,2-trifluoro-ethylamino)-pyrido[3,2-d]pyrimidin-6-yl]-phenyl}-3-hydroxy-pyrrolidin-2-one]
[1]
  EC50: < 0.1 µM
[2]
  CC50 at 3 days: < 5 µM

## CS(=O)(=O)N(CCO)c1cccc(-c2ccc3nc(NCc4ccc(F)cc4)nc(NCC(F)(F)F)c3n2)c1 [Example 276, N-{3-[2-(4-Fluoro-benzylamino)-4-(2,2,2-trifluoro-ethylamino)-pyrido[3,2-d]pyrimidin-6-yl]-phenyl}-N-(2-hydroxy-ethyl)-methanesulfonamide]
[1]
  EC50: < 0.1 µM
[2]
  CC50 at 3 days: 5 to 25 µM

## CC(C)(N)C(=O)Nc1ccc(-c2ccc3nc(NCc4ccc(F)cc4)nc(NCC(F)(F)F)c3n2)cc1 [Example 277, 2-Amino-N-{4-[2-(4-fluoro-benzylamino)-4-(2,2,2-trifluoro-ethylamino)-pyrido[3,2-d]pyrimidin-6-yl]-phenyl}-2-methyl-propionamide]
[1]
  EC50: < 0.1 µM
[2]
  CC50 at 3 days: < 5 µM

## O=C(Nc1ccc(-c2ccc3nc(NCc4ccc(F)cc4)nc(NCC(F)(F)F)c3n2)cc1)C1(O)CC1 [Example 278, 1-Hydroxy-cyclopropanecarboxylic acid {4-[2-(4-fluoro-benzylamino)-4-(2,2,2-trifluoro-ethylamino)-pyrido[3,2-d]pyrimidin-6-yl]-phenyl}-amide]
[1]
  EC50: < 0.1 µM
[2]
  CC50 at 3 days: 5 to 25 µM

## CN(CCS(C)(=O)=O)c1nc(NCc2ccc(F)cc2)nc2ccc(-c3cccc(N(CCO)S(C)(=O)=O)c3)nc12 [Example 279, N-(3-{2-(4-Fluoro-benzylamino)-4-[(2-methanesulfonyl-ethyl)-methyl-amino]-pyrido[3,2-d]pyrimidin-6-yl}-phenyl)-N-(2-hydroxy-ethyl)-methanesulfonamide]
[1]
  EC50: < 0.1 µM
[2]
  CC50 at 3 days: 5 to 25 µM

## CN(CCS(C)(=O)=O)c1nc(NCc2ccc(F)cc2)nc2ccc(-c3ccc(NC(=O)C(C)(C)N)cc3)nc12 [Example 280, 2-Amino-N-(4-{2-(4-fluoro-benzylamino)-4-[(2-methanesulfonyl-ethyl)-methyl-amino]-pyrido[3,2-d]pyrimidin-6-yl}-phenyl)-2-methyl-propionamide]
[1]
  EC50: < 0.1 µM
[2]
  CC50 at 3 days: 5 to 25 µM

## CN(CCS(C)(=O)=O)c1nc(NCc2ccc(F)cc2)nc2ccc(-c3ccc(NC(=O)C4(O)CC4)cc3)nc12 [Example 281, 1-Hydroxy-cyclopropanecarboxylic acid (4-{2-(4-fluoro-benzylamino)-4-[(2-methanesulfonyl-ethyl)-methyl-amino]-pyrido[3,2-d]pyrimidin-6-yl}-phenyl)-amide]
[1]
  EC50: < 0.1 µM
[2]
  CC50 at 3 days: 5 to 25 µM

## CS(=O)(=O)CCNc1nc(NCc2ccc(F)cc2)nc2ccc(-c3cnc(N)s3)nc12 [Example 282, 6-(2-Amino-thiazol-5-yl)-N2-(4-fluoro-benzyl)-N4-(2-methanesulfonyl-ethyl)-pyrido[3,2-d]pyrimidine-2,4-diamine]
[1]
  EC50: < 0.1 µM
[2]
  CC50 at 3 days: > 25 µM

## N#CC1(NC(=O)c2ccc(-c3ccc4nc(NCc5ccc(F)cc5)nc(O[C@H]5CCOC5)c4n3)cc2)CC1 [Example 283, N-(1-Cyano-cyclopropyl)-4-[2-(4-fluoro-benzylamino)-4-(tetrahydro-furan-3-yloxy)-pyrido[3,2-d]pyrimidin-6-yl]-benzamide]
[1]
  EC50: < 0.1 µM
[2]
  CC50 at 3 days: < 5 µM

## CC(C)Nc1cnn(-c2ccc3nc(NCc4ccc(S(N)(=O)=O)cc4)nc(NCC(F)(F)F)c3n2)c1 [Example 284, 4-{[6-(4-Isopropylamino-pyrazol-1-yl)-4-(2,2,2-trifluoro-ethylamino)-pyrido[3,2-d]pyrimidin-2-ylamino]-methyl}-benzenesulfonamide]
[1]
  EC50: < 0.1 µM
[2]
  CC50 at 3 days: > 25 µM

## NS(=O)(=O)c1ccc(CNc2nc(NCC(F)(F)F)c3nc(-n4cncn4)ccc3n2)cc1 [Example 285, 4-{[6-[1,2,4]Triazol-1-yl-4-(2,2,2-trifluoro-ethylamino)-pyrido[3,2-d]pyrimidin-2-ylamino]-methyl}-benzenesulfonamide]
[1]
  EC50: < 0.1 µM
[2]
  CC50 at 3 days: > 25 µM

## NS(=O)(=O)c1ccc(CNc2nc(NCC(F)(F)F)c3nc(-n4ccnc4)ccc3n2)cc1 [Example 286, 4-{[6-Imidazol-1-yl-4-(2,2,2-trifluoro-ethylamino)-pyrido[3,2-d]pyrimidin-2-ylamino]-methyl}-benzenesulfonamide]
[1]
  EC50: < 0.1 µM
[2]
  CC50 at 3 days: 5 to 25 µM

## NS(=O)(=O)c1ccc(CNc2nc(NCC(F)(F)F)c3nc(-c4ccc(=O)[nH]c4)ccc3n2)cc1 [Example 287, 4-{[6-(6-Oxo-1,6-dihydro-pyridin-3-yl)-4-(2,2,2-trifluoro-ethylamino)-pyrido[3,2-d]pyrimidin-2-ylamino]-methyl}-benzenesulfonamide]
[1]
  EC50: < 0.1 µM
[2]
  CC50 at 3 days: > 25 µM

## NS(=O)(=O)c1ccc(CNc2nc(NCC(F)(F)F)c3nc(-c4cc[nH]c(=O)c4)ccc3n2)cc1 [Example 288, 4-{[6-(2-Oxo-1,2-dihydro-pyridin-4-yl)-4-(2,2,2-trifluoro-ethylamino)-pyrido[3,2-d]pyrimidin-2-ylamino]-methyl}-benzenesulfonamide]
[1]
  EC50: < 0.1 µM
[2]
  CC50 at 3 days: > 25 µM

## NS(=O)(=O)c1ccc(CNc2nc(C3CC3)c3nc(-c4ccc(F)c(S(N)(=O)=O)c4)ccc3n2)cc1 [Example 289, 5-[4-Cyclopropyl-2-(4-sulfamoyl-benzylamino)-pyrido[3,2-d]pyrimidin-6-yl]-2-fluoro-benzenesulfonamide]
[1]
  EC50: < 0.1 µM
[2]
  CC50 at 3 days: 5 to 25 µM

## NC(=O)Nc1ccc(-c2ccc3nc(NCc4ccc(S(N)(=O)=O)cc4)nc(C4CC4)c3n2)cc1 [Example 290, 4-{[4-Cyclopropyl-6-(4-ureido-phenyl)-pyrido[3,2-d]pyrimidin-2-ylamino]-methyl}-benzenesulfonamide]
[1]
  EC50: < 0.1 µM
[2]
  CC50 at 3 days: 5 to 25 µM

## NS(=O)(=O)c1ccc(CNc2nc(C3CC3)c3nc(-c4cccc(S(N)(=O)=O)c4)ccc3n2)cc1 [Example 291, 4-{[4-Cyclopropyl-6-(3-(aminosulfonyl)-phenyl)-pyrido[3,2-d]pyrimidin-2-ylamino]-methyl}-benzenesulfonamide]
[1]
  EC50: < 0.1 µM
[2]
  CC50 at 3 days: < 5 µM
